Assay results taken from ChEMBL document CHEMBL1201861, “Genomics of Drug Sensitity in Cancer screening data, Wellcome Trust Sanger Institute”.

What was measured:
Experiment in all cases: cells
A673 = type: functional, cell-based, Homo sapiens; settings: Homo sapiens, A673;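 also: growth inhibition of human A673 cells, read out through a cell viability assay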
Description: SANGER: Inhibition of human A673 cell growth in a cell viability assay.

GT3TKB = type: functional, cell-based, Homo sapiens; settings: Homo sapiens, GT3TKB;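 also: growth inhibition of the cell line, read out with a cell viability assay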
Description: SANGER: Inhibition of human GT3TKB cell growth in a cell viability assay.

LAMA-84 = type: functional, cell-based; settings: Homo sapiens;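 also: growth inhibition of LAMA-84 cells, read out with a cell viability assay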
Description: SANGER: Inhibition of human LAMA-84 cell growth in a cell viability assay.

COR-L105 = type: functional, cell-based, Homo sapiens; settings: Homo sapiens, COR-L105;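 also: cell growth inhibition determined with a viability assay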
Description: SANGER: Inhibition of human COR-L105 cell growth in a cell viability assay.

SW780 = type: functional, cell-based, Homo sapiens; settings: Homo sapiens, SW780;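 also: growth inhibition of the cells, read out with a cell viability assay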
Description: SANGER: Inhibition of human SW780 cell growth in a cell viability assay.

SNU-387 = type: functional, cell-based, Homo sapiens; settings: Homo sapiens, SNU-387
Description: SANGER: Inhibition of human SNU-387 cell growth in a cell viability assay.

EW-13 = type: functional, cell-based; settings: Homo sapiens;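 also: growth inhibition of EW-13 cells, read out with a cell viability assay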
Description: SANGER: Inhibition of human EW-13 cell growth in a cell viability assay.

BXPC-3 = type: functional, cell-based, Homo sapiens; settings: Homo sapiens, BXPC-3;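 also: growth inhibition of human BxPC-3 cells, read out by a cell viability assay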
Description: SANGER: Inhibition of human BxPC-3 cell growth in a cell viability assay.

MKN-28 = type: functional, cell-based, Homo sapiens; settings: Homo sapiens, MKN-28;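 also: cell viability assay read-out, IC50 reflects suppression of growth of human MKN-28 cells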
Description: SANGER: Inhibition of human MKN28 cell growth in a cell viability assay.

EC-GI-10 = type: functional, cell-based, Homo sapiens; settings: Homo sapiens, EC-GI-10
Description: SANGER: Inhibition of human EC-GI-10 cell growth in a cell viability assay.

EW-3 = type: functional, cell-based; settings: Homo sapiens;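 also: cell viability assay read-out, IC50 reflects inhibition of growth of the EW-3 cells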
Description: SANGER: Inhibition of human EW-3 cell growth in a cell viability assay.

C3A = type: functional, cell-based, Homo sapiens; settings: Homo sapiens, C3A;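 also: growth inhibition of C3A human cells, quantified with a cell viability readout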
Description: SANGER: Inhibition of human C3A cell growth in a cell viability assay.

HuTu80 = type: functional, cell-based, Homo sapiens, HUTU-80; settings: Homo sapiens, HuTu80;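 also: growth inhibition of HuTu80 human cells, determined with a cell viability readout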
Description: SANGER: Inhibition of human HUTU-80 cell growth in a cell viability assay.

NCI-H2122 = type: functional, cell-based, Homo sapiens; settings: Homo sapiens, NCI-H2122;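 also: growth inhibition of the cells, read out with a cell viability assay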
Description: SANGER: Inhibition of human NCI-H2122 cell growth in a cell viability assay.

NCI-H1993 = type: functional, cell-based, Homo sapiens; settings: Homo sapiens, NCI-H1993;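 also: growth inhibition of the cancer cell line, assessed with a cell viability assay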
Description: SANGER: Inhibition of human NCI-H1993 cell growth in a cell viability assay.

SK-N-DZ = type: functional, cell-based, Homo sapiens; settings: Homo sapiens, SK-N-DZ;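 also: growth inhibition of the cancer cell line, read out through a viability assay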
Description: SANGER: Inhibition of human SK-N-DZ cell growth in a cell viability assay.

ES8 = type: functional, cell-based, Homo sapiens; settings: Homo sapiens, ES8;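 also: growth inhibition of human ES8 cells, read out with a cell viability assay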
Description: SANGER: Inhibition of human ES8 cell growth in a cell viability assay.

Calu-3 = type: functional, cell-based, Homo sapiens; settings: Homo sapiens, Calu-3;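 also: growth inhibition of human Calu-3 cells, determined with a cell viability assay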
Description: SANGER: Inhibition of human Calu-3 cell growth in a cell viability assay.

A-375 = type: functional, cell-based, Homo sapiens; settings: Homo sapiens, A-375;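 also: growth inhibition of A375 cells, read out with a cell viability assay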
Description: SANGER: Inhibition of human A375 cell growth in a cell viability assay.

697 = type: functional, cell-based; settings: Homo sapiens
Description: SANGER: Inhibition of human 697 cell growth in a cell viability assay.

KURAMOCHI = type: functional, cell-based; settings: Homo sapiens;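 also: growth inhibition of KURAMOCHI cells, read out with a cell viability assay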
Description: SANGER: Inhibition of human KURAMOCHI cell growth in a cell viability assay.

NCI-H1792 = type: functional, cell-based, Homo sapiens; settings: Homo sapiens, NCI-H1792;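 also: growth inhibition of human NCI-H1792 cells, read out as cell viability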
Description: SANGER: Inhibition of human NCI-H1792 cell growth in a cell viability assay.

COLO-800 = type: functional, cell-based, Homo sapiens; settings: Homo sapiens, COLO-800;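 also: growth inhibition of COLO-800 cells, read out with a cell viability assay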
Description: SANGER: Inhibition of human COLO-800 cell growth in a cell viability assay.

AN3-CA = type: functional, cell-based; settings: Homo sapiens;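 also: growth inhibition of human AN3-CA cells measured by a cell viability assay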
Description: SANGER: Inhibition of human AN3-CA cell growth in a cell viability assay.

AM-38 = type: functional, cell-based, Homo sapiens; settings: Homo sapiens, AM-38;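 also: growth inhibition of AM-38 cells of human origin, read out by a cell viability assay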
Description: SANGER: Inhibition of human AM-38 cell growth in a cell viability assay.

EOL1 = type: functional, cell-based; settings: Homo sapiens;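 also: growth inhibition of EoL-1 cells, read out by a cell viability assay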
Description: SANGER: Inhibition of human EoL-1-cell cell growth in a cell viability assay.

KYSE-150 cell line = type: functional, cell-based, Homo sapiens; settings: Homo sapiens, KYSE-150;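 also: growth inhibition of human KYSE-150 cells, read out with a cell viability assay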
Description: SANGER: Inhibition of human KYSE-150 cell growth in a cell viability assay.

SJSA-1 = type: functional, cell-based, Homo sapiens; settings: Homo sapiens, SJSA-1;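 also: growth inhibition of human SJSA-1 cells, read out through a cell viability measurement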
Description: SANGER: Inhibition of human SJSA-1 cell growth in a cell viability assay.

DoTc2-4510 = type: functional, cell-based, Homo sapiens; settings: Homo sapiens, DoTc2-4510
UMC-11 = type: functional, cell-based, Homo sapiens; settings: Homo sapiens, UMC-11;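 also: growth inhibition of UMC-11 cells, read out with a cell viability assay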
Description: SANGER: Inhibition of human UMC-11 cell growth in a cell viability assay.

HCC1806 = type: functional, cell-based, Homo sapiens; settings: Homo sapiens, HCC1806;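 also: growth inhibition of the cancer cell line, determined with a cell viability assay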
Description: SANGER: Inhibition of human HCC1806 cell growth in a cell viability assay.

NCI-H2347 = type: functional, cell-based, Homo sapiens; settings: Homo sapiens, NCI-H2347;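 also: growth inhibition of the cell line, read out with a cell viability assay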
Description: SANGER: Inhibition of human NCI-H2347 cell growth in a cell viability assay.

HT-1376 = type: functional, cell-based, Homo sapiens; settings: Homo sapiens, HT-1376
Description: SANGER: Inhibition of human HT-1376 cell growth in a cell viability assay.

HCC2157 = type: functional, cell-based; settings: Homo sapiens;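 also: growth inhibition of the cancer cell line, read out as cell viability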
Description: SANGER: Inhibition of human HCC2157 cell growth in a cell viability assay.

CAPAN-1 = type: functional, cell-based, Homo sapiens; settings: Homo sapiens, CAPAN-1;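 also: growth suppression of CAPAN-1 cells, read out by a cell viability assay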
Description: SANGER: Inhibition of human CAPAN-1 cell growth in a cell viability assay.

HCC1954 = type: functional, cell-based, Homo sapiens; settings: Homo sapiens, HCC1954;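 also: growth inhibition of human HCC1954 cells, read out with a cell viability assay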
Description: SANGER: Inhibition of human HCC1954 cell growth in a cell viability assay.

NCI-H446 = type: functional, cell-based; settings: Homo sapiens;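 also: growth inhibition of NCI-H446 cells determined by a cell viability assay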
Description: SANGER: Inhibition of human NCI-H446 cell growth in a cell viability assay.

CAL-39 = type: functional, cell-based, Homo sapiens; settings: Homo sapiens, CAL-39;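 also: cell viability assay measuring growth inhibition of CAL-39 cells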
Description: SANGER: Inhibition of human CAL-39 cell growth in a cell viability assay.

KY821 = type: functional, cell-based; settings: Homo sapiens;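 also: growth inhibition of human KY821 cells, read out by a cell viability assay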
Description: SANGER: Inhibition of human KY821 cell growth in a cell viability assay.

A2058 = type: functional, cell-based; settings: Homo sapiens;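 also: reduction of A2058 cell growth, read out with a viability assay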
Description: SANGER: Inhibition of human A2058 cell growth in a cell viability assay.

SW1573 = type: functional, cell-based, Homo sapiens; settings: Homo sapiens, SW1573;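 also: growth inhibition of SW1573 cells, read out with a cell viability assay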
Description: SANGER: Inhibition of human SW1573 cell growth in a cell viability assay.

DMS-114 = type: functional, cell-based, Homo sapiens; settings: Homo sapiens, DMS-114
SW684 = type: functional, cell-based, Homo sapiens; settings: Homo sapiens, SW684;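 also: growth inhibition of human SW684 cells, measured by a cell viability assay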
Description: SANGER: Inhibition of human SW684 cell growth in a cell viability assay.

MCF7 = type: functional, cell-based, Homo sapiens; settings: Homo sapiens, MCF7;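 also: growth inhibition of human MCF7 cells, read out with a cell viability assay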
Description: SANGER: Inhibition of human MCF7 cell growth in a cell viability assay.

OVCAR-8 = type: functional, cell-based, Homo sapiens; settings: Homo sapiens, OVCAR-8;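 also: growth inhibition of human OVCAR-8 cells, read out by a cell viability assay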
Description: SANGER: Inhibition of human OVCAR-8 cell growth in a cell viability assay.

TGBC24TKB = type: functional, cell-based, Homo sapiens; settings: Homo sapiens, TGBC24TKB;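 also: growth inhibition of human TGBC24TKB cells, read out with a cell viability assay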
Description: SANGER: Inhibition of human TGBC24TKB cell growth in a cell viability assay.

TE-5 = type: functional, cell-based, Homo sapiens; settings: Homo sapiens, TE-5;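 also: inhibition of cell growth, read out by a cell viability assay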
Description: SANGER: Inhibition of human TE-5 cell growth in a cell viability assay.

CAL-33 = type: functional, cell-based, Homo sapiens; settings: Homo sapiens, CAL-33;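 also: growth inhibition of CAL-33 cells, read out with a cell viability assay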
Description: SANGER: Inhibition of human CAL-33 cell growth in a cell viability assay.

LU-134-A = type: functional, cell-based; settings: Homo sapiens
Description: SANGER: Inhibition of human LU-134-A cell growth in a cell viability assay.

NCI-H1299 = type: functional, cell-based, Homo sapiens; settings: Homo sapiens, NCI-H1299;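 also: growth inhibition of human NCI-H1299 cells, read out by a cell viability assay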
Description: SANGER: Inhibition of human NCI-H1299 cell growth in a cell viability assay.

SNU-449 = type: functional, cell-based, Homo sapiens; settings: Homo sapiens, SNU-449
Description: SANGER: Inhibition of human SNU-449 cell growth in a cell viability assay.

Cn1cncc1[C@@](N)(c1ccc(Cl)cc1)c1ccc2c(c1)c(-c1cccc(Cl)c1)cc(=O)n2C [TIPIFARNIB]
IC50 (A673): 15.3 µM
IC50 (GT3TKB): 3.01 µM
IC50 (LAMA-84): 6.42 µM
IC50 (COR-L105): 7.24 µM
IC50 (SW780): > 16 µM
IC50 (SNU-387): 7.06 µM
IC50 (EW-13): 6.48 µM
IC50 (BXPC-3): 4.33 µM
IC50 (MKN-28): 1.44 µM
IC50 (EC-GI-10): > 16 µM
IC50 (EW-3): > 16 µM
IC50 (C3A): 4.64 µM
IC50 (HuTu80): 0.285 µM
IC50 (NCI-H2122): 0.191 µM
IC50 (NCI-H1993): > 16 µM
IC50 (SK-N-DZ): 4.71 µM
IC50 (ES8): 10.4 µM
IC50 (Calu-3): 4.43 µM
IC50 (A-375): 0.616 µM
IC50 697: 1.28 µM
IC50 (KURAMOCHI): 4.78 µM
IC50 (NCI-H1792): > 16 µM
IC50 (COLO-800): > 16 µM
IC50 (AN3-CA): 1 µM
IC50 (AM-38): > 16 µM
IC50 (EOL1): 6.71 µM
IC50 (KYSE-150 cell line): 6.2 µM
IC50 (SJSA-1): > 16 µM
IC50 (DoTc2-4510): 1.68 µM
IC50 (UMC-11): > 16 µM
IC50 (HCC1806): 11.9 µM
IC50 (NCI-H2347): > 16 µM
IC50 (HT-1376): 11.6 µM
IC50 (HCC2157): 0.323 µM
IC50 (CAPAN-1): > 16 µM
IC50 (HCC1954): 14.3 µM
IC50 (NCI-H446): > 16 µM
IC50 (CAL-39): 0.962 µM
IC50 (KY821): > 16 µM
IC50 (A2058): 11.8 µM
IC50 (SW1573): > 16 µM
IC50 (DMS-114): > 16 µM
IC50 (SW684): > 16 µM
IC50 (MCF7): 0.166 µM
IC50 (OVCAR-8): 4.45 µM
IC50 (TGBC24TKB): > 16 µM
IC50 (TE-5): 11.9 µM
IC50 (CAL-33): 3.68 µM
IC50 (LU-134-A): > 16 µM
IC50 (NCI-H1299): 0.693 µM
IC50 (SNU-449): 0.623 µM

COc1cc([C@@H]2c3cc4c(cc3[C@@H](O[C@@H]3O[C@@H]5CO[C@@H](C)O[C@H]5[C@H](O)[C@H]3O)[C@H]3COC(=O)[C@H]23)OCO4)cc(OC)c1O [ETOPOSIDE]
IC50 (A673): 2.16 µM
IC50 (GT3TKB): 0.406 µM
IC50 (LAMA-84): 9.21 µM
IC50 (COR-L105): 9.57 µM
IC50 (SW780): > 16 µM
IC50 (SNU-387): > 16 µM
IC50 (EW-13): 0.0889 µM
IC50 (BXPC-3): > 16 µM
IC50 (MKN-28): 2.55 µM
IC50 (EC-GI-10): > 16 µM
IC50 (EW-3): 14.3 µM
IC50 (C3A): 7.93 µM
IC50 (HuTu80): 0.217 µM
IC50 (NCI-H2122): 5.39 µM
IC50 (NCI-H1993): > 16 µM
IC50 (SK-N-DZ): > 16 µM
IC50 (ES8): 0.142 µM
IC50 (Calu-3): 0.496 µM
IC50 (A-375): 0.631 µM
IC50 697: 0.243 µM
IC50 (KURAMOCHI): 0.699 µM
IC50 (NCI-H1792): > 16 µM
IC50 (COLO-800): 2.1 µM
IC50 (AN3-CA): 2.2 µM
IC50 (AM-38): 3.67 µM
IC50 (EOL1): 0.302 µM
IC50 (KYSE-150 cell line): 0.53 µM
IC50 (SJSA-1): 2.98 µM
IC50 (DoTc2-4510): 1.05 µM
IC50 (UMC-11): > 16 µM
IC50 (HCC1806): 4.73 µM
IC50 (NCI-H2347): 9.66 µM
IC50 (HT-1376): 5.82 µM
IC50 (HCC2157): > 16 µM
IC50 (CAPAN-1): 1.25 µM
IC50 (HCC1954): 10 µM
IC50 (NCI-H446): > 16 µM
IC50 (CAL-39): 4.64 µM
IC50 (KY821): > 16 µM
IC50 (A2058): 0.425 µM
IC50 (SW1573): 2.25 µM
IC50 (DMS-114): > 16 µM
IC50 (SW684): > 16 µM
IC50 (MCF7): 0.831 µM
IC50 (OVCAR-8): 1.09 µM
IC50 (TGBC24TKB): > 16 µM
IC50 (TE-5): 1.18 µM
IC50 (CAL-33): 0.686 µM
IC50 (LU-134-A): 0.299 µM
IC50 (NCI-H1299): 2.07 µM
IC50 (SNU-449): > 16 µM

C[C@]1(O)C[C@@H](c2nc(-c3ccc4ccc(-c5ccccc5)nc4c3)c3c(N)nccn32)C1 [LINSITINIB]
IC50 (A673): > 2.56 µM
IC50 (GT3TKB): > 2.56 µM
IC50 (LAMA-84): > 2.56 µM
IC50 (COR-L105): > 2.56 µM
IC50 (SW780): > 2.56 µM
IC50 (SNU-387): 0.994 µM
IC50 (EW-13): > 2.56 µM
IC50 (BXPC-3): > 2.56 µM
IC50 (MKN-28): > 2.56 µM
IC50 (EC-GI-10): > 2.56 µM
IC50 (EW-3): 2.1 µM
IC50 (C3A): > 2.56 µM
IC50 (HuTu80): > 2.56 µM
IC50 (NCI-H2122): 0.233 µM
IC50 (NCI-H1993): > 2.56 µM
IC50 (SK-N-DZ): 0.237 µM
IC50 (ES8): > 2.56 µM
IC50 (Calu-3): > 2.56 µM
IC50 (A-375): 0.476 µM
IC50 697: > 2.56 µM
IC50 (KURAMOCHI): > 2.56 µM
IC50 (NCI-H1792): > 2.56 µM
IC50 (COLO-800): > 2.56 µM
IC50 (AN3-CA): > 2.56 µM
IC50 (AM-38): > 2.56 µM
IC50 (EOL1): > 2.56 µM
IC50 (KYSE-150 cell line): > 2.56 µM
IC50 (SJSA-1): 1.04 µM
IC50 (DoTc2-4510): > 2.56 µM
IC50 (UMC-11): > 2.56 µM
IC50 (HCC1806): > 2.56 µM
IC50 (NCI-H2347): > 2.56 µM
IC50 (HT-1376): > 2.56 µM
IC50 (HCC2157): > 2.56 µM
IC50 (CAPAN-1): > 2.56 µM
IC50 (HCC1954): > 2.56 µM
IC50 (NCI-H446): > 2.56 µM
IC50 (CAL-39): > 2.56 µM
IC50 (KY821): > 2.56 µM
IC50 (A2058): > 2.56 µM
IC50 (SW1573): > 2.56 µM
IC50 (DMS-114): > 2.56 µM
IC50 (SW684): > 2.56 µM
IC50 (MCF7): > 2.56 µM
IC50 (OVCAR-8): > 2.56 µM
IC50 (TGBC24TKB): 1.5 µM
IC50 (TE-5): > 2.56 µM
IC50 (CAL-33): > 2.56 µM
IC50 (LU-134-A): 2.28 µM
IC50 (NCI-H1299): > 2.56 µM
IC50 (SNU-449): > 2.56 µM
